Results as given in patent US12291504B2 (University of Pittsburgh—Of the Commonwealth System of …, priority 2018, dated 2025).
Like-named read-outs stand apart in the source and are kept apart here.

Tests used:
SULT1A3 = SULT1A3 (Homo sapiens, UniProt P0DMM9); assay: SULT1A3 inhibition studies, 1-HP initial-rate fluorescence assay; format: biochemical; set-up: Wild-type and mutant SULT1A3 coding regions were inserted into a pGEX-6P expression vector; N-His/GST/MBP triple-tag (N, cleaved yes); made in house; host or cells: E. coli BL21(DE3); inhibition: dose or concentration left out as unconfirmed; conditions: for inhibition: read-out: SULT1A3 Enzyme Inhibition at Saturation/%
Sequence of SULT1A3 (P0DMM9 whole entry): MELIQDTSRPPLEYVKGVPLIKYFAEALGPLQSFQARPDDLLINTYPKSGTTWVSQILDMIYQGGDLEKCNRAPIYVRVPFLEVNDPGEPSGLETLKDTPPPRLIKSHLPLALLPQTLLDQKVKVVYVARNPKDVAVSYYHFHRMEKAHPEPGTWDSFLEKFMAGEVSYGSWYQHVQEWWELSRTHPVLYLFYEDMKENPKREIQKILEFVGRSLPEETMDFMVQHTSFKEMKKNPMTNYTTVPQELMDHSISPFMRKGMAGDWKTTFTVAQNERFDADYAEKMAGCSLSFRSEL
Method: The initial rates of SULT catalyzed 1-HP sulfonation are plotted as a function of inhibitor concentration, and are normalized relative to [inhibitor]=0. Enzyme activity was monitored by the sulfonation dependent change in 1-HP fluorescence (λex=325 nm, λem=370 nm). Less than 5% of the concentration-limiting substrate converted at the reaction endpoint was consumed during initial-rate measurements. Each point is the average of three independent determinations. Conditions: SULT (20 nM, active sites), PAPS (0.50 mM, 17×Km), 1-HP (5.0 μM, 61×Km), KPO4 (50 mM), pH 7.5, 25±2° C.
(§1) Initial-Rate Studies. Initial-rate parameters for the labeled or mutant SULT1A3 constructs were determined using a previously described 1-HP assay (25). Briefly, reactions were initiated by addition of PAPS (0.50 mM, 17×Km) to a solution containing enzyme (20 nM, active sites), 1-HP (2.0 μM, ˜24×Km), and KPO4 (50 mM), pH 7.5, 25±2° C. Reactions were monitored via fluorescence change associated with the conversion of 1-HP to 1-HP-S (λex=325 nm, λem=370 nm). Keq for the 1-HP sulfonation reaction is −250. Given the reaction conditions outlined above, ≥99% of 1-HP is converted to 1-HP-S, and ˜0.4% of PAPS is converted to PAP at equilibrium. […] Reaction progress curves were analyzed to obtain initial-rate parameters as described previously (26,27).
(§2) Inhibition studies. Inhibition parameters were determined under conditions identical to those described above (see, Initial-Rate Studies) except that [1-HP] was increased to 5.0 μM (˜61×Km) and inhibitor concentration was varied between 0.20-20×Ki. Ki was obtained using a least-squares fit to the following partial inhibition equation (25,28): v=kcat·(Ki+(1/kcat inh)·[I])/(Ki+[I]), where kcat inh is enzyme turnover at saturating substrates and allosteric inhibitor.
as §1, with “(47).” for “(25).”, “˜250.” for “−250.”, “(48,49).” for “(26,27).”
as §2, with “(47,50): V/Vax=(Ki+α·[I])/(Ki+[I]),” for “(25,28): v=kcat·(Ki+(1/kcat inh)·[I])/(Ki+[I]),”, “α” for “kcat inh”, “is percentage of” for “is”, “turnover remaining” for “turnover”

Green Monkey (1A3) = Green Monkey (1A3) (Chlorocebus sabaeus, UniProt Z9LO20H8W3); assay: Inhibition of SULT1A3 homologues in different species: Green Monkey; format: biochemical
Sequence of Green Monkey (1A3) (Z9LO20H8W3 1-295): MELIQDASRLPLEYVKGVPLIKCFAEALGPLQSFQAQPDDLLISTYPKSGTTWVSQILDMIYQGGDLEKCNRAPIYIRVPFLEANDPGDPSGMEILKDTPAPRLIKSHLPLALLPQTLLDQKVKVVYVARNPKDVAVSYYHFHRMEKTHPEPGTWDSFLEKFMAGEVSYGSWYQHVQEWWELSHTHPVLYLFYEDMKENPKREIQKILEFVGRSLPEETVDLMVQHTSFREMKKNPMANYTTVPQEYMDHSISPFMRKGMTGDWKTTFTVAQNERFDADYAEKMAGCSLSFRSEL
Method: Compounds 12, 23 and 25 were also tested for Inhibition of SULT1A3 in different species.
Inhibition of SULT1A3 Homologues in Different Species. SULT1A3 is only expressed in humans and higher primates. SULT1D1 is the isoform expressed in dogs and rodents that sulfonates neurotransmitters and is most similar to SULT1A3. Three synthesized allosteres (12, 23, and 25) were tested against both 1A3 and 1D1 from different species in order to explore testing in animal models. […] Mice have been engineered such that their SULT1A1/2 enzymes have been knocked out and replaced with the human versions of those isoforms.

[1] = ND = inhibition was not detected at 30 μM compound, parentheses one standard error, read-out: SULT1A3 Ki/μM

`CC(C)Cc1ccc2cc(CO)ccc2n1` [Compound 8, (2-Isobutylquinolin-6-yl)methanol] gave a Ki (SULT1A3; FIG. 1, read-out: Ki of CMP8 for SULT1A3) of 0.034 µM, a Ki (SULT1A3; [1]) of 0.034 µM and a Ki (SULT1A3; WT enzyme, parentheses one standard deviation, read-out: Ki CMP8) of 0.034 µM. For the same compound, the “alleviation of inhibition by epigallochatechin gallate or mefenamic acid” value (SULT1A3; competition against near-total inhibitors of the catechin and NSAID sites) was “did not alleviate inhibition”, the inhibition (SULT1A3; parentheses one standard error) was 54% and the “SULT1A3 turnover at saturation relative to absence of inhibitor” value (SULT1A3; partial inhibitor, at saturation) was 46%. The “kcat (+CMP8)/kcat (−CMP8)” value (SULT1A3; saturating CMP8) was 0.46±0.08.

With `CC(C)Cc1ccc2cc(CCC(N)=O)ccc2n1` [Compound 12] the “Green Monkey (1A3) % inh” value (Green Monkey (1A3)) was 71 (3) %, the Ki (Green Monkey (1A3); parentheses one standard error) was 170 nM and the “affinity for SULT1A3 (in words)” value (SULT1A3) was “low micromolar affinity”. The Ki (SULT1A3; [1]) was 0.069 µM, the inhibition (SULT1A3; parentheses one standard error) was 83% and the Ki (SULT1A3; standard error in neighbouring cell, read-out: Human (1A3) Ki) was 0.05 µM. The inhibition at saturation (SULT1A3; text b218) was 83%.
